From publication PMC5454592, “Pharmacological and Toxicological Properties of the Potent Oral γ-Secretase Modulator BPN-15606” (The Journal of Pharmacology and Experimental Therapeutics, 2017)

Key:
[1] = system: Notch proteolysis by γ-secretase; experiment: Notch assay (Myc-tagged Notch NΔE in H4-APP751 neuroglioma cells); format: cell-based; conditions: H4-APP751 neuroglioma cells transfected with Myc-tagged Notch (NΔE) construct; Fig. 3
Description: Notch assays were carried out as described previously ([Wagner et al., 2014]).

[2] = design: method as in Soares et al., 2016; Toyn et al., 2016; conditions: ref Soares et al., 2016, Toyn et al.; cited from earlier work

Row | Structure (SMILES) | Notch proteolysis [1] | hepatic safety in repeated oral dosing studies in humans [2]
1 | C[C@H](NC(=O)Cc1cc(F)cc(F)c1)C(=O)N[C@H](C(=O)OC(C)(C)C)c1ccccc1 [N-[N-(3,5-difluorophenacetyl)-L-alanyl]-S-phenylglycine t-butyl ester, reference compound] | potently inhibits Notch proteolysis | 
2 | CNc1nc(Nc2ccc(-n3cnc(C)n3)c(OC)c2)nc2c1CC[C@H]2c1ccc(F)cc1 [BMS-932481] |  | transient elevations in plasma concentrations of enzymes associated with hepatic toxicity
